Laboratory results: BindingDB's records for patent US10889592 (VALO EARLY DISCOVERY, INC., 2021)

Assays:
[1] = molecular target: T1, Ubiquitin carboxyl-terminal hydrolase 25 (Homo sapiens, UniProt Q9UHP3); test: Biochemical Assay
T1 sequence (Q9UHP3 whole entry): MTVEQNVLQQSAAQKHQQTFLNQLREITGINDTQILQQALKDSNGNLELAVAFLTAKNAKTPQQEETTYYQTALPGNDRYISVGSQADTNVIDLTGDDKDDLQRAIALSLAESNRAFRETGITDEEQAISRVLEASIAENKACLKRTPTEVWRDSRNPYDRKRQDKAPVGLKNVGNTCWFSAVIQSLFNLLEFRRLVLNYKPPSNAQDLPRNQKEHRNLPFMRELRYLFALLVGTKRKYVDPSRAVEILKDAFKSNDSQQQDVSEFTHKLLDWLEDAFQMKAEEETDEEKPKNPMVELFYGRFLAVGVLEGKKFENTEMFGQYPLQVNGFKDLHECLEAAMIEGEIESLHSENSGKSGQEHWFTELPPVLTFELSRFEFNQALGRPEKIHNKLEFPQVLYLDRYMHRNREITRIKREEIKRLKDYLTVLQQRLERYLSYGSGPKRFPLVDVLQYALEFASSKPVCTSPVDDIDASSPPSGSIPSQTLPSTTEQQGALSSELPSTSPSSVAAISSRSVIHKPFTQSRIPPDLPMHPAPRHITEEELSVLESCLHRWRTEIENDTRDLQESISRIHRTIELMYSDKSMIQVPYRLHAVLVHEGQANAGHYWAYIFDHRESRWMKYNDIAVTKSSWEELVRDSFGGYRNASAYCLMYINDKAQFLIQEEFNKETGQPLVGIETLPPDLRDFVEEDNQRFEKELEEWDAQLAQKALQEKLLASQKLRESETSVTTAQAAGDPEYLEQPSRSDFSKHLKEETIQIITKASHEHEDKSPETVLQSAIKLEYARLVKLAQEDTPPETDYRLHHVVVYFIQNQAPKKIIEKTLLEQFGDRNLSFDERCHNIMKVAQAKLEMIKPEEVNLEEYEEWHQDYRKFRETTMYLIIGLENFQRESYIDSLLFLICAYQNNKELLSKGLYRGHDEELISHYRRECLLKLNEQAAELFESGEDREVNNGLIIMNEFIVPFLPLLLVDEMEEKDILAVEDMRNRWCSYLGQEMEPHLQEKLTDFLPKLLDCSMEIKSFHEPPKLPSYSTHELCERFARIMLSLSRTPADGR
Protocol: USP25: The assay was performed in a final volume of 9 μL in assay buffer containing 20 mM Tris-HCl (pH 8.0, (1M Tris-HCl, pH 8.0 solution; Corning 46-031-CM)), 3 mM BME (2-Mercaptoethanol; Sigma 63689-25ML-F), 0.03% BGG (0.22 μM filtered. Sigma, G7516-25G), and 0.01% Triton X-100 (Sigma, T9284-10L). Nanoliter quantities of 10-point, 3-fold serial dilution in DMSO was pre-dispensed into 1536 assay plates (Corning, #3724BC) for a final test concentration of 25 μM to 1.3 nM, top to lowest dose, respectively. Enzyme USP25, construct USP25-His6, (Boston Biochem E-546). Concentration and incubation times were optimized for the maximal signal-to-background while maintaining initial velocity conditions at a fixed substrate concentration. The final concentration of the enzyme in the assay was 75 pM. Final substrate (Ub-Rh110 Ubiquitin-Rhodamine 110, R&D Systems # U-555) concentration was 25 nM with [Ub-Rh110]<<Km. 3 μL of 2× enzyme was added to assay plates (pre-stamped with compound) preincubated with […] for 30 minutes and then 3 μL of 2×Ub-Rh110 was added to assay plates. […] Fluorescence was read on the Envision (Excitation at 485 nm and Emission at 535 nm; Perkin Elmer) or on the PheraSTAR (Excitation at 485 nm and Emission at 535 nm; BMG Labtech).

[2] = molecular target: T2, Ubiquitin carboxyl-terminal hydrolase 28 (Homo sapiens, UniProt Q96RU2); test: Biochemical Assay
T2 sequence (Q96RU2 whole entry): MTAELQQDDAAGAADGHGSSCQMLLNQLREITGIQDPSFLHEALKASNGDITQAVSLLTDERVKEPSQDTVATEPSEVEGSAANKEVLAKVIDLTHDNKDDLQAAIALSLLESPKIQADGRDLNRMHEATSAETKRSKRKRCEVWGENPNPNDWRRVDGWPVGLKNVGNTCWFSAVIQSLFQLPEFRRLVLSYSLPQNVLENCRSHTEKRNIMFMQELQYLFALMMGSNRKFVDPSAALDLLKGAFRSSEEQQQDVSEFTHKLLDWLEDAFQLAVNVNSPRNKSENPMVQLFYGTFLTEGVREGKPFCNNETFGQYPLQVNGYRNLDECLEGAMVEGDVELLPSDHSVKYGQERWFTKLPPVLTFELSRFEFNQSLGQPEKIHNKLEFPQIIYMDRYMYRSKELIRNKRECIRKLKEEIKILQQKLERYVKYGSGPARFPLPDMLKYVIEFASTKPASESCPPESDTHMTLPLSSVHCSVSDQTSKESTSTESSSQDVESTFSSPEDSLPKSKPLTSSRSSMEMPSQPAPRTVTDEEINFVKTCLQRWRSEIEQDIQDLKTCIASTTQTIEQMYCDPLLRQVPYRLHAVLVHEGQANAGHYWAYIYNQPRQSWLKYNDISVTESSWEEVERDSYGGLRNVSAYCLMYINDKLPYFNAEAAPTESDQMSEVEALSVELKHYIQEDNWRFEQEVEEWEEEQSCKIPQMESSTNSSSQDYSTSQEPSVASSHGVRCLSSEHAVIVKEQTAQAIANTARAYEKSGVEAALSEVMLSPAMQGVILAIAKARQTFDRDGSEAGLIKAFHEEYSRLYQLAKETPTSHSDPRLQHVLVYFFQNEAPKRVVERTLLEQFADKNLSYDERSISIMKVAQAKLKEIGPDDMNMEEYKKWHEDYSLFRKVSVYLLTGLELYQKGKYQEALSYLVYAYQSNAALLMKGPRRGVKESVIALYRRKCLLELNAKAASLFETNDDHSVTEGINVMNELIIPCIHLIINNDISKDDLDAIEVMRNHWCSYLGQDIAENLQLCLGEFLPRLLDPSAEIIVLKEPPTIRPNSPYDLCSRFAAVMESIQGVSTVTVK
Protocol: USP28: Each assay was performed in a final volume of 20 μL in assay buffer containing 20 mM Tris-HCl (pH 8.0, (1M Tris-HCl, pH 8.0 solution; Corning 46-031-CM)), 2 mM CaCl2) (1M Calcium Chloride solution; Sigma #21114) 2 mM BME (2-Mercaptoethanol; Sigma 63689-25ML-F), 0.01% Prionex (0.22 μM filtered, Sigma # G-0411), and 0.01% Triton X-100. Stock compound solutions were stored at −20° C. as 10 mM in DMSO. Up to 1 month prior to the assay, 2 mM test compounds were pre-dispensed into assay plates (Black, low volume; Corning #3820) and frozen at −20° C. Prestamped assay plates were allowed to come to room temperature on the day of the assay. For the screen, 100 nL of 2 mM was pre-dispensed for a final screening concentration of 10 μM (DMSO(fc)=0.5%). […] Plates were incubated stacked for 90 minutes at room temperature before fluorescence was read on the Envision (Excitation at 485 nm and Emission at 535 nm; Perkin Elmer) or on the PheraSTAR (Excitation at 485 nm and Emission at 535 nm; BMG Labtech).

SMILES	IC50 [1]	IC50 [2]
Cc1cnc2c(N)c(C(=O)NCCc3c(F)cc(N4C5CCC4CNC5)cc3F)sc2n1 [US10889592, Compound I-11]	in the range around 1.1 µM	in the range around 1.1 µM
Cc1cnc2c(N)c(C(=O)NCCc3ccc(N4C5CCC4CNC5)cc3F)sc2n1 [US10889592, Compound I-10]	in the range around 1.1 µM	< 0.2 µM
